Read-outs that look alike come from different tables or passages of the source.
What was measured:
[1] = system: CD43; assay: Cell surface expression of CD43 in human neutrophils (immunofluorescence flow cytometry); type: cell-based; details: Medium = 100
From the text: (§1) Isolation and treatment of neutrophils.
(§2) Monoclonal antibodies. […] The antibodies are commercially available.
(§3) Immunofluorescence flow cytometry. […] Results were expressed as relative MFI (rMFI), such that
(§4) rMFI=(MFIagent×100)/MFImedium
(§5) Background fluorescence was substracted from all values.

[2] = system: HLA; details: human neutrophils, Medium = 100
Experimental: Isolation and treatment of neutrophils. Human neutrophils were obtained from fresh peripheral blood by dextran sedimentation and centrifugation on Ficoll-Hypaque followed by hypotonic lysis of residual erythrocytes. […] Cells were resuspended at 3×10^6 neutrophils/ml in HEPES/glucose buffer (150 mM NaCl, 5 mM KCl, 10 mM HEPES, 1.2 mM MgCl2, 1.3 mM CaCl2, 5.5 mM glucose, pH 7.5), and incubated in the absence or presence of distinct agents at 37° C. for the times indicated in the respective legends to figures. Subsequently, cells were pelleted by centrifugation and saved to determine the content of different cell surface antigens by flow cytometry.
Monoclonal antibodies. The following monoclonal antibodies were used: TS1/11 anti-CD11a, Bear-1 anti-CD11b, TP1/36.1 anti-CD43, HP2/9 anti-CD44, Leu-8 anti-L-selectin, and W6/32, specific for a monomorphic determinant on HLA-A, B molecules. P3X63 myeloma culture supernatant was used as a negative control. The antibodies are commercially available.
Immunofluorescence flow cytometry. Immunofluorescence flow cytometry analysis was performed in a FACStar-Plus and a FACScan flow cytometers (Becton-Dickinson). Neutrophils were incubated at 4° C. with the corresponding monoclonal antibody followed by washing and labelling with a fluorescein isothiocyanate (FITC)-labelled-goat anti-mouse IgG antibody (DAKO, Glostrup, Denmark). Mean fluorescence intensity (MFI) in linear scale was obtained from at least 7000 cells in each sample, and the fluorescence produced by the myeloma P3X63 supernatant was considered as background. Results were expressed as relative MFI (rMFI), such that
as §4, §5

[3] = system: CD11a; assay: Cell surface expression of CD11a in human neutrophils (immunofluorescence flow cytometry); type: cell-based; details: Medium = 100
From the text: as §1, §2, §3, §4, §5

[4] = system: neutrophils; assay: Toxicity for neutrophils; type: cell-based, human
From the text: as §1

[5] = system: experimental colitis induced by TNB (2,4,6-trinitrobenzenesulphonic acid); assay: Rat model of experimental colitis induced by TNB, macroscopic evaluation; type: in vivo; design: Wet Weight (colon): unit not given beside the values; details: Wistar rat; for Wet Weight (colon) / Sample 2 × 6 mm / Score (0-10) / Weight/mm: Mean ± SEM
Experimental: The therapeutic potential for the treatment of ulcerative colitis of IEC01 at 2.5 and 5 mg/kg and IES01 at 2.5 mg/kg, was evaluated after their administration by oral route during 14 days (7 days of preventive treatment and 7 days of therapeutic treatment) using the rat model of experimental colitis induced by TNB (2,4,6-trinitrobenzenesulphonic acid). As reference parameters, the body weight, wet colon weight and score macroscopic evaluation were evaluated after 24 hours and after 7 days of the intraluminal administration of TNB in the colon. […] The inflammatory response is recognised by the presence of ulcerative fissures, faecal shatters and inflammation of bowel wall. A chronic inflammatory response was observed 7 days after the administration. An erratic response with lineal or punctual ulcers, necrosis, faecal shatters, reduction of colonic lumen, granulomas and peritoneal adherence was observed.

[6] = Body weight evaluation in the TNB colitis rat model; type: in vivo; details: Wistar rat, Mean ± SEM
Experimental: The therapeutic potential for the treatment of ulcerative colitis of IEC01 at 2.5 and 5 mg/kg and IES01 at 2.5 mg/kg, was evaluated after their administration by oral route during 14 days (7 days of preventive treatment and 7 days of therapeutic treatment) using the rat model of experimental colitis induced by TNB (2,4,6-trinitrobenzenesulphonic acid). As reference parameters, the body weight, wet colon weight and score macroscopic evaluation were evaluated after 24 hours and after 7 days of the intraluminal administration of TNB in the colon.

[7] = 2.5 mg/Kg p.o., after 24 hours of intraluminal administration
[8] = 2.5 mg/Kg p.o., after 7 days of intraluminal administration
[9] = 5.0 mg/Kg p.o., after 24 hours of intraluminal administration
[10] = 5.0 mg/Kg p.o., after 7 days of intraluminal administration

SMILES: CCCCCCCCCCCCCCCCCCOCC(COP(=O)([O-])OCC[N+](C)(C)C)OC (stereo not drawn) [IEC01, Edelfosine]
- CD43 cell surface expression (rMFI) ([1]; 10 ng/ml): 87.5 ± 2.5
- CD43 cell surface expression (rMFI) ([1]; 100 ng/ml): 63 ± 8
- CD43 cell surface expression (rMFI) ([1]; 500 ng/ml): 53 ± 5
- CD43 cell surface expression (rMFI) ([1]; 1 μg/ml): 33 ± 8
- CD43 cell surface expression (rMFI) ([1]; 5 μg/ml): 28 ± 7
- HLA cell surface expression (rMFI) ([2]; 10 ng/ml): 101 ± 5
- HLA cell surface expression (rMFI) ([2]; 100 ng/ml): 100 ± 4
- HLA cell surface expression (rMFI) ([2]; 500 ng/ml): 99 ± 5
- HLA cell surface expression (rMFI) ([2]; 1 μg/ml): 102 ± 6
- HLA cell surface expression (rMFI) ([2]; 5 μg/ml): 101 ± 5
- CD11a cell surface expression (rMFI) ([3]; 10 ng/ml): 99 ± 3
- CD11a cell surface expression (rMFI) ([3]; 100 ng/ml): 102 ± 5
- CD11a cell surface expression (rMFI) ([3]; 500 ng/ml): 97 ± 8
- CD11a cell surface expression (rMFI) ([3]; 1 μg/ml): 101 ± 6
- CD11a cell surface expression (rMFI) ([3]; 5 μg/ml): 96 ± 5
- concentrations toxic for neutrophils [4]: higher than 50 μg/ml
- % (inhibition, Sample 2 × 6 mm) [5, 7]: 14.7%
- % (inhibition, Score) [5, 7]: 8.6%
- % (inhibition, Weight/mm) [5, 7]: 35.2%
- % (inhibition, Wet Weight) [5, 7]: 35.1%
- Wet Weight (colon) ([5]; 2.5 mg/Kg p.o., after 24 hours of intraluminal administration in the colon): 1.689 ± 0.15
- Sample 2 × 6 mm [5, 7]: 373.12 ± 48.12 mg
- Score (0-10) [5, 7]: 5.2 ± 0.73
- Weight/mm [5, 7]: 0.187 ± 0.02
- % (inhibition, Sample 2 × 6 mm) [5, 8]: 17.9%
- % (inhibition, Weight/mm) [5, 8]: 13.3%
- % (inhibition, Wet Weight) [5, 8]: 13.4%
- Wet Weight (colon) ([5]; 2.5 mg/Kg p.o., after 7 days of intraluminal administration in the colon): 1.354 ± 0.14
- % (inhibition, Score) ([5]; 2.5 mg/Kg p.o., after 7 days of intraluminal administration, 2.5 mg/kg): 78,6%
- Sample 2 × 6 mm [5, 8]: 299.62 ± 75.58 mg
- Score (0-10) [5, 8]: 1.2 ± 0.58
- Weight/mm [5, 8]: 0.150 ± 0.00
- % (inhibition, Sample 2 × 6 mm) [5, 9]: 61.7%
- % (inhibition, Score) [5, 9]: 42.9%
- % (inhibition, Weight/mm) [5, 9]: 77.3%
- % (inhibition, Wet Weight) [5, 9]: 77.4%
- Wet Weight (colon) ([5]; 5.0 mg/Kg p.o., after 24 hours of intraluminal administration in the colon): 1.412 ± 0.06
- Sample 2 × 6 mm [5, 9]: 301.10 ± 18.95 mg
- Score (0-10) [5, 9]: 4.0 ± 0.32
- Weight/mm [5, 9]: 0.157 ± 0.00
- % (inhibition, Sample 2 × 6 mm) [5, 10]: 71.4%
- % (inhibition, Weight/mm) [5, 10]: 63.0%
- % (inhibition, Wet Weight) [5, 10]: 63.0%
- Wet Weight (colon) ([5]; 5.0 mg/Kg p.o., after 7 days of intraluminal administration in the colon): 1.113 ± 0.14
- % (inhibition, Score) ([5]; 5.0 mg/Kg p.o., after 7 days of intraluminal administration, 5 mg/kg): 71,4%
- Sample 2 × 6 mm [5, 10]: 272.14 ± 53.65 mg
- Score (0-10) [5, 10]: 1.4 ± 0.40
- Weight/mm [5, 10]: 0.124 ± 0.01
- Body weight DAY 1 ([6]; 2.5 mg/Kg p.o.): 233.5 ± 3.07 g
- Body weight DAY 2 ([6]; 2.5 mg/Kg p.o.): 236.0 ± 3.42 g
- Body weight DAY 4 ([6]; 2.5 mg/Kg p.o.): 240.3 ± 3.60 g
- Body weight DAY 7 ([6]; 2.5 mg/Kg p.o.): 210.6 ± 3.05 g
- Body weight DAY 8 ([6]; 2.5 mg/Kg p.o.): 214.8 ± 3.41 g
- Body weight DAY 11 ([6]; 2.5 mg/Kg p.o.): 234.4 ± 4.53 g
- Body weight DAY 12 ([6]; 2.5 mg/Kg p.o.): 241.0 ± 4.04 g
- Body weight DAY 13 ([6]; 2.5 mg/Kg p.o.): 244.2 ± 4.16 g
- Body weight DAY 14 ([6]; 2.5 mg/Kg p.o.): 249.4 ± 4.42 g
- Body weight DAY 1 ([6]; 5.0 mg/Kg p.o): 227.4 ± 1.21 g
- Body weight DAY 2 ([6]; 5.0 mg/Kg p.o): 229.1 ± 1.05 g
- Body weight DAY 4 ([6]; 5.0 mg/Kg p.o): 235.9 ± 1.63 g
- Body weight DAY 7 ([6]; 5.0 mg/Kg p.o): 207.4 ± 1.90 g
- Body weight DAY 8 ([6]; 5.0 mg/Kg p.o): 216.2 ± 2.56 g
- Body weight DAY 11 ([6]; 5.0 mg/Kg p.o): 237.6 ± 3.35 g
- Body weight DAY 12 ([6]; 5.0 mg/Kg p.o): 245.2 ± 3.17 g
- Body weight DAY 13 ([6]; 5.0 mg/Kg p.o): 250.6 ± 3.31 g
- Body weight DAY 14 ([6]; 5.0 mg/Kg p.o): 253.6 ± 5.34 g

Source: patent US6583127B1, “Use of etherlysophospholipids as antiinflammatory agents” (Inkeysa. SA, priority 1998, dated 2003)
